Legend:
Assay in all cases: relative viability (nuclei count vs DMSO), 5 days (fraction); higher = more cells survive
Linifanib + Pemetrexed = compound: Cc1ccc(F)c(NC(=O)Nc2ccc(-c3cccc4[nH]nc(N)c34)cc2)c1 [Linifanib] + Nc1nc2[nH]cc(CCc3ccc(C(=O)N[C@@H](CCC(=O)O)C(=O)O)cc3)c2c(=O)[nH]1 [Pemetrexed] (partner 0.2 µM)
How it was run: (§1)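 Nuclei were stained with Hoechst during a one-step fixation (final 0.05% Triton X-100, 1% formaldehyde, 1 ug/ml Hoechst) carried out 5 days after dosing, then counted on 4× images. The cells, lung cancer lines in 1536-well plates, had been dosed by pin tool the day after seeding with one drug alone or a fixed anchor-drug dose plus five library-drug doses (not always all listed) in √10 steps. Relative viability is the nuclei count in treated wells divided by that in vehicle wells, and each value is the median of duplicate plates.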

Linifanib + Crizotinib = compound: Cc1ccc(F)c(NC(=O)Nc2ccc(-c3cccc4[nH]nc(N)c34)cc2)c1 [Linifanib] + C[C@@H](Oc1cc(-c2cnn(C3CCNCC3)c2)cnc1N)c1c(Cl)ccc(F)c1Cl [Crizotinib] (partner 1 µM)
How it was run: as §1

Linifanib + AZD7762 = compound: Cc1ccc(F)c(NC(=O)Nc2ccc(-c3cccc4[nH]nc(N)c34)cc2)c1 [Linifanib] + NC(=O)Nc1cc(-c2cccc(F)c2)sc1C(=O)N[C@H]1CCCNC1 [AZD7762] (partner 0.2 µM)
How it was run: as §1

Linifanib + Navitoclax = compound: Cc1ccc(F)c(NC(=O)Nc2ccc(-c3cccc4[nH]nc(N)c34)cc2)c1 [Linifanib] + CC1(C)CCC(c2ccc(Cl)cc2)=C(CN2CCN(c3ccc(C(=O)NS(=O)(=O)c4ccc(N[C@H](CCN5CCOCC5)CSc5ccccc5)c(S(=O)(=O)C(F)(F)F)c4)cc3)CC2)C1 [Navitoclax] (partner 0.5 µM)
How it was run: as §1

Linifanib + Luminespib = compound: Cc1ccc(F)c(NC(=O)Nc2ccc(-c3cccc4[nH]nc(N)c34)cc2)c1 [Linifanib] + CCNC(=O)c1noc(-c2cc(C(C)C)c(O)cc2O)c1-c1ccc(CN2CCOCC2)cc1 [Luminespib] (partner 0.01 µM)
How it was run: as §1

Linifanib + Vorinostat = compound: Cc1ccc(F)c(NC(=O)Nc2ccc(-c3cccc4[nH]nc(N)c34)cc2)c1 [Linifanib] + O=C(CCCCCCC(=O)Nc1ccccc1)NO [Vorinostat] (partner 1 µM)
How it was run: as §1

Cell Line | relative viability (Linifanib + Pemetrexed; first compound 0.03162 µM) | relative viability (Linifanib + Pemetrexed; first compound 0.1 µM) | relative viability (Linifanib + Pemetrexed; first compound 0.3162 µM) | relative viability (Linifanib + Crizotinib; first compound 0.03162 µM) | relative viability (Linifanib + Crizotinib; first compound 0.1 µM) | relative viability (Linifanib + Crizotinib; first compound 0.3162 µM) | relative viability (Linifanib + AZD7762; first compound 0.03162 µM) | relative viability (Linifanib + AZD7762; first compound 0.1 µM) | relative viability (Linifanib + AZD7762; first compound 0.3162 µM) | relative viability (Linifanib + Navitoclax; first compound 0.03162 µM) | relative viability (Linifanib + Navitoclax; first compound 0.1 µM) | relative viability (Linifanib + Navitoclax; first compound 0.3162 µM) | relative viability (Linifanib + Luminespib; first compound 0.03162 µM) | relative viability (Linifanib + Luminespib; first compound 0.1 µM) | relative viability (Linifanib + Luminespib; first compound 0.3162 µM) | relative viability (Linifanib + Vorinostat; first compound 0.03162 µM) | relative viability (Linifanib + Vorinostat; first compound 0.1 µM) | relative viability (Linifanib + Vorinostat; first compound 0.3162 µM)
NCI-H23 | 0.66 | 0.882 | 0.761 | 0.555 | 0.463 | 0.506 | 0.259 | 0.287 | 0.31 | 0.98 | 0.99 | 0.61 | 0.238 | 0.217 | 0.225 | 0.771 | 0.688 | 0.566
EPLC-272H | 0.332 | 0.358 | 0.339 | 0.813 | 0.913 | 0.826 | 0.226 | 0.448 | 0.205 | 1.09 | 1.09 | 0.962 | 0.405 | 0.392 | 0.419 | 0.522 | 0.467 | 0.513
NCI-H1975 | 0.293 | 0.317 | 0.278 | 1 | 1.02 | 0.984 | 0.688 | 0.706 | 0.618 | 1.05 | 1.22 | 1.08 | 0.202 | 0.139 | 0.251 | 0.649 | 0.735 | 0.697
NCI-H2170 | 0.265 | 0.276 | 0.297 | 1.33 | 1.35 | 1.11 | 0.831 | 0.954 | 0.843 | 0.557 | 0.616 | 0.448 | 0.686 | 0.844 | 0.741 | 0.806 | 0.814 | 0.823
PC-3 [JPC-3] | 1.03 | 1.05 | 0.94 | 1 | 1.01 | 0.986 | 0.796 | 0.856 | 0.776 | 0.878 | 0.826 | 0.77 | 0.744 | 0.731 | 0.579 | 0.671 | 0.747 | 0.775
A-427 | 0.96 | 0.992 | 0.945 | 0.964 | 0.983 | 0.83 | 0.735 | 0.823 | 0.779 | 1.07 | 0.986 | 0.998 | 0.912 | 1.09 | 0.814 | 0.884 | 0.86 | 0.918
LU99A | 0.182 | 0.171 | 0.202 | 0.61 | 0.57 | 0.558 | 0.378 | 0.433 | 0.356 | 0.747 | 0.775 | 0.743 | 0.205 | 0.246 | 0.268 | 0.497 | 0.43 | 0.505
H3255 | 0.555 | 0.586 | 0.529 | 0.865 | 0.892 | 0.85 | 0.868 | 0.925 | 0.853 | 0.557 | 0.642 | 0.562 | 0.85 | 0.94 | 0.976 | 0.788 | 0.795 | 0.812
NCI-H1437 | 0.323 | 0.339 | 0.286 | 1.05 | 0.849 | 0.888 | 1.01 | 1.22 | 1.13 | 1.1 | 1.12 | 1.07 | 1.12 | 1.17 | 1.04 | 0.851 | 0.918 | 0.819
LC-2-ad | 0.307 | 0.293 | 0.269 | 0.588 | 0.404 | 0.381 | 0.871 | 0.878 | 0.804 | 0.48 | 0.553 | 0.429 | 0.968 | 0.958 | 1.05 | 0.83 | 0.7 | 0.73
NCI-H460 | 0.0619 | 0.0626 | 0.0566 | 0.95 | 1.16 | 0.909 | 0.614 | 0.555 | 0.562 | 1.1 | 1.45 | 1 | 0.0304 | 0.0311 | 0.0301 | 0.713 | 0.877 | 0.596
201T | 0.317 | 0.309 | 0.317 | 0.999 | 1.02 | 1.04 | 0.603 | 0.606 | 0.654 | 1.2 | 1.23 | 1.21 | 1.1 | 1.06 | 1.03 | 1.01 | 0.981 | 1.02
NCI-H596 | 0.461 | 0.535 | 0.555 | 0.913 | 0.902 | 1.05 | 1.16 | 1.28 | 1.15 | 1.12 | 1.04 | 0.882 | 1.02 | 1.1 | 1.17 | 0.604 | 0.624 | 0.689
RERF-LC-KJ | 0.502 | 0.494 | 0.484 | 0.833 | 0.778 | 0.745 | 1.03 | 1.01 | 0.938 | 1.12 | 1.02 | 0.994 | 1.3 | 1.28 | 1.25 | 0.737 | 0.804 | 0.727
NCI-H1915 | 0.588 | 0.502 | 0.502 | 0.9 | 0.923 | 0.838 | 0.743 | 0.701 | 0.681 | 0.78 | 0.821 | 0.788 | 0.826 | 0.804 | 0.679 | 0.549 | 0.482 | 0.504
NCI-H3122 | 0.203 | 0.201 | 0.193 | 0.281 | 0.263 | 0.261 | 1.01 | 1.04 | 0.977 | 1.02 | 1.04 | 1.01 | 0.0911 | 0.0897 | 0.0958 | 1.12 | 1.09 | 0.927

Reference: the supplement of paper PMC10307832
